Assay results taken from the NIST ThermoML archive (doi:10.1016/j.fluid.2017.09.019).
Numbers after ± are expanded uncertainties.

Legend:
[1] = Liquid; for viscosity / mass density: 101 kPa; for viscosity: Concentric cylinders viscometry; for mass density: Vibrating tube method; for vapor or sublimation pressure: Closed cell (Static) method
[2] = wn = mass fraction of the nth substance listed; details: 101 kPa, Liquid; for viscosity: Concentric cylinders viscometry; for mass density: Vibrating tube method

With `CC(O)CN(C)C` (stereo not drawn) [1-(dimethylamino)-2-propanol] the viscosity ([1]; 298.15 K) was 1.332 ± 0.1 mPa·s, the mass density ([1]; 298.15 K) was 845.4 ± 2.4 kg/m3 and the “vapor or sublimation pressure” value ([1]; 298.49 K) was 4.13 ± 2 kPa. The viscosity ([1]; 303.15 K) was 1.183 ± 0.1 mPa·s, the mass density ([1]; 303.15 K) was 840.3 ± 2.4 kg/m3 and the “vapor or sublimation pressure” value ([1]; 303.88 K) was 6.59 ± 2 kPa. For the same compound, the viscosity ([1]; 308.15 K) was 1.059 ± 0.1 mPa·s, the mass density ([1]; 308.15 K) was 835.5 ± 2.4 kg/m3 and the “vapor or sublimation pressure” value ([1]; 308.43 K) was 8.03 ± 2 kPa. The viscosity ([1]; 313.15 K) was 0.955 ± 0.1 mPa·s, the mass density ([1]; 313.15 K) was 830.7 ± 2.4 kg/m3 and the “vapor or sublimation pressure” value ([1]; 313.34 K) was 10.34 ± 2 kPa. The viscosity ([1]; 318.15 K) was 0.866 ± 0.1 mPa·s, the mass density ([1]; 318.15 K) was 825.8 ± 2.4 kg/m3 and the “vapor or sublimation pressure” value ([1]; 318.26 K) was 12.51 ± 2 kPa. The viscosity ([1]; 323.15 K) was 0.788 ± 0.1 mPa·s, the mass density ([1]; 323.15 K) was 820.9 ± 2.4 kg/m3 and the “vapor or sublimation pressure” value ([1]; 323.6 K) was 15.84 ± 2 kPa. The viscosity ([1]; 328.15 K) was 0.72 ± 0.1 mPa·s, the mass density ([1]; 328.15 K) was 816 ± 2.4 kg/m3 and the “vapor or sublimation pressure” value ([1]; 328.26 K) was 18.73 ± 2 kPa. The “vapor or sublimation pressure” value ([1]; 333.04 K) was 23.06 ± 2 kPa, the viscosity ([1]; 333.15 K) was 0.662 ± 0.1 mPa·s and the mass density ([1]; 333.15 K) was 811.1 ± 2.4 kg/m3.
Compound `CN(CCO)CCO` [N-methyldiethanolamine] + O has a viscosity ([2]; 298.15 K, w1 = 0.2) of 1.932 ± 0.1 mPa·s, a viscosity ([2]; 298.15 K, w1 = 0.3) of 3.081 ± 0.1 mPa·s and a viscosity ([2]; 298.15 K, w1 = 1) of 77.29 ± 0.88 mPa·s. The mass density ([2]; 298.15 K, w1 = 0.2) was 1014.8 ± 2.4 kg/m3, the mass density ([2]; 298.15 K, w1 = 0.3) was 1025.2 ± 2.4 kg/m3 and the mass density ([2]; 298.15 K, w1 = 1) was 1036.9 ± 2.4 kg/m3. It also gave a viscosity ([2]; 308.15 K, w1 = 0.2) of 1.51 ± 0.1 mPa·s, a viscosity ([2]; 308.15 K, w1 = 0.3) of 2.263 ± 0.1 mPa·s and a viscosity ([2]; 308.15 K, w1 = 1) of 44.99 ± 0.51 mPa·s. It also gave a mass density ([2]; 308.15 K, w1 = 0.2) of 1010.6 ± 2.4 kg/m3, a mass density ([2]; 308.15 K, w1 = 0.3) of 1021.1 ± 2.4 kg/m3 and a mass density ([2]; 308.15 K, w1 = 1) of 1029.8 ± 2.4 kg/m3. It also gave a viscosity ([2]; 323.15 K, w1 = 0.2) of 1.061 ± 0.1 mPa·s, a viscosity ([2]; 323.15 K, w1 = 0.3) of 1.521 ± 0.1 mPa·s and a viscosity ([2]; 323.15 K, w1 = 1) of 22.6 ± 0.34 mPa·s. For the same compound, the mass density ([2]; 323.15 K, w1 = 0.2) was 1002.9 ± 2.4 kg/m3, the mass density ([2]; 323.15 K, w1 = 0.3) was 1013.2 ± 2.4 kg/m3 and the mass density ([2]; 323.15 K, w1 = 1) was 1018.3 ± 2.4 kg/m3.
In the case of `CN(CCO)CCO` [N-methyldiethanolamine], the viscosity ([1]; 298.15 K) is reported as 77.29 ± 0.88 mPa·s, the mass density ([1]; 298.15 K) is reported as 1036.9 ± 2.4 kg/m3 and the viscosity ([1]; 308.15 K) is reported as 44.99 ± 0.51 mPa·s. For the same compound, the mass density ([1]; 308.15 K) was 1029.8 ± 2.4 kg/m3, the viscosity ([1]; 323.15 K) was 22.6 ± 0.34 mPa·s and the mass density ([1]; 323.15 K) was 1018.3 ± 2.4 kg/m3.
